{"source": "patent US6362370B1", "about": "“Wood preservatives” (Lonza AG, priority 1996, dated 2002)", "key": {"[1]": {"experiment": "Penetration depth in sapwood blocks after immersion in aqueous QAC solution", "type": "physicochemical", "details": "sapwood blocks 2.5 cm×5.0 cm×12 cm, immersion in 5% strength aqueous solution, 24 hours at 20° C.", "protocol": "Fine sapwood blocks of dimensions 2.5 cm×5.0 cm×12 cm were impregnated with the QAC shown in the table by immersion in an aqueous solution of in each case 5% strength. The immersion time was a standard 24 hours (at 20° C.)."}, "[2]": {"system": "fungus-infested soil (forest soil)", "experiment": "Soil burying method according to Schwammkeller: service life of impregnated beechwood bars", "details": "beechwood bars 1 cm×1 cm×40 cm, immersion in 0.5% strength solution for 24 hours, buried in fungus-infested soil, time until flexural breaking strength has fallen to 25% of the initial value", "protocol": "Bars of beechwood (1 cm×1 cm×40 cm) were impregnated by immersion in a 0.5% strength solution of the SAC for 24 hours and then tested by the soil burying method according to Schwammkeller. For this, treated and untreated timbers were buried in fungus-infested soil (forest soil). The service life here is defined as the time after which the flexural breaking strength has fallen to 25% of the initial value of (untreated) comparison timbers of the same dimensions and type of wood."}}, "data": [{"substance": "N,N-didecyl-N-methyl-N-(polyoxyethyl)ammonium [Example 9]", "values": [{"measurement": "Penetration depth", "setting": "[1]", "value": "6-8 mm"}]}, {"substance": "N,N-didecyl-N-methyl-N-(polyoxyethyl)ammonium [Example V3, reference compound]", "values": [{"measurement": "Penetration depth", "setting": "[1]", "value": "2-3 mm"}, {"measurement": "Service life", "setting": "[2]", "value": 4, "unit": "months"}]}, {"substance": "N,N-didecyl-N-methyl-N-(polyoxyethyl)ammonium [Example V4, reference compound]", "values": [{"measurement": "Penetration depth", "setting": "[1]", "value": "3-4 mm"}]}, {"substance": "N,N-didecyl-N-methyl-N-(polyoxyethyl)ammonium hydroxyacetate [Example 8]", "values": [{"measurement": "Penetration depth", "setting": "[1]", "value": "7-10 mm"}]}, {"substance": "N,N-didecyl-N-methyl-N-(polyoxyethyl)ammonium lactate [Example 7]", "values": [{"measurement": "Penetration depth", "setting": "[1]", "value": "7-8 mm"}, {"measurement": "Service life", "setting": "[2]", "value": ">9", "unit": "months"}]}, {"substance": "N,N-dimethyl-N-benzyl-N-(coconut alkyl)ammonium [Example 5]", "values": [{"measurement": "Penetration depth", "setting": "[1]", "value": "6-8 mm"}, {"measurement": "Service life", "setting": "[2]; listed as 10", "value": ">9", "unit": "months"}]}, {"substance": "N,N-dimethyl-N-benzyl-N-(coconut alkyl)ammonium [Example 6]", "values": [{"measurement": "Penetration depth", "setting": "[1]", "value": "7-8 mm"}]}, {"substance": "N,N-dimethyl-N-benzyl-N-(coconut alkyl)ammonium [Example V1, reference compound]", "values": [{"measurement": "Penetration depth", "setting": "[1]", "value": "1-3 mm"}, {"measurement": "Service life", "setting": "[2]; listed as V5", "value": 3, "unit": "months"}]}, {"substance": "N,N-dimethyl-N-benzyl-N-(coconut alkyl)ammonium [Example V2, reference compound]", "values": [{"measurement": "Penetration depth", "setting": "[1]", "value": "2-3 mm"}]}]}
